Test results published in patent publication US10105357B2, “Indication of antibiotic drugs for preparation of cancer inhibition pharmaceutical composition” (LAUNX BIOMEDICAL CO., LTD., priority 2014, dated 2018).

Legend:
[1] = tested on: HI650 (Lung Adenocarcinoma); assay: Cell viability analysis, lung cancer HI650; type: cell-based, human; conditions: H1650, repeated experiment
[2] = tested on: A549 (Lung Adenocarcinoma); assay: Cell viability analysis, lung cancer A549; type: cell-based, human; conditions: A549, repeated experiment
[3] = tested on: AGS (Gastric Adenocarcinoma); assay: Cell viability analysis, gastric cancer AGS; type: cell-based, human; conditions: AGS, repeated experiment
[4] = tested on: MKN-45 (Gastric Adenocarcinoma); assay: Cell viability analysis, gastric cancer MKN-45; type: cell-based, human
[5] = tested on: HepG2 (Hepatocellular Carcinoma); assay: Cell viability analysis, hepatic cancer HepG2; type: cell-based, human; conditions: HepG2, repeated experiment
[6] = tested on: Hep3B (hepatocellular carcinoma); assay: Cell viability analysis, hepatic cancer Hep3B; type: cell-based, human; conditions: Hep3B, repeated experiment
[7] = tested on: LoVo (Colorectal Adenocarcinoma); assay: Cell viability analysis, colon cancer LoVo; type: cell-based, human; conditions: LoVo, repeated experiment
[8] = tested on: A375 (Amelanotic Melanoma); assay: Cell viability analysis, skin cancer A375; type: cell-based, human; conditions: A375, repeated experiment
[9] = tested on: BCC (basal cell carcinoma); assay: Cell viability analysis, skin cancer BCC; type: cell-based, human; conditions: BCC, repeated experiment
[10] = tested on: HeLa (Cervix Adenocarcinoma); assay: Cell viability analysis, cervical cancer HeLa; type: cell-based, human; conditions: HeLa, HeLa, repeated experiment
[11] = tested on: C-33A (Cervical carcinoma); assay: Cell viability analysis, cervical cancer C-33A; type: cell-based, human; conditions: C-33A, repeated experiment
[12] = tested on: PC3 (p53−) (Prostate Adenocarcinoma); assay: Cell viability analysis, prostate cancer PC3; type: cell-based, human
[13] = tested on: TSGH-8301 (Urinary Bladder Carcinoma); assay: Cell viability analysis, bladder cancer TSGH-8301; type: cell-based, human; conditions: TSGH-8301, repeated experiment
[14] = tested on: T24; assay: Cell viability analysis, bladder cancer T24; type: cell-based, human; conditions: T24, repeated experiment
[15] = tested on: MCF7 (Mammary Gland, Adenocarcinoma); assay: Cell viability analysis, breast cancer MCF7; type: cell-based, human; conditions: MCF-7, repeated experiment
[16] = tested on: MDA-MB-231 (Mammary Gland, Adenocarcinoma); assay: Cell viability analysis, breast cancer MDA-MB-231; type: cell-based, human; conditions: MDA-MB231, repeated experiment
[17] = tested on: BxPC-3; assay: Cell viability analysis, pancreatic cancer BxPC-3; type: cell-based, human; conditions: BxPC-3, repeated experiment
[18] = tested on: AsPC-1; assay: Cell viability analysis, pancreatic cancer AsPC-1; type: cell-based, human; conditions: AsPC-1, repeated experiment
[19] = tested on: NIH: OVCAR-3; assay: Cell viability analysis, ovarian cancer NIH: OVCAR-3; type: cell-based, human; conditions: NIH-OVCAR-3, repeated experiment
[20] = tested on: TOV-21G; assay: Cell viability analysis, ovarian cancer TOV-21G; type: cell-based, human; conditions: TOV-21G, repeated experiment
[21] = tested on: SAS (Tongue squamous cell carcinoma); assay: Cell viability analysis, tongue cancer SAS; type: cell-based, human; conditions: SAS, repeated experiment
[22] = tested on: U-2OS; assay: Cell viability analysis, osteosarcoma U-2OS; type: cell-based, human; conditions: U2OS, repeated experiment
[23] = tested on: 786-O (Renal adenocarcinoma); assay: Cell viability analysis, renal cancer 786-O; type: cell-based, human; conditions: 786-O, repeated experiment
[24] = tested on: HCT116 (p53+) (Colorectal Carcinoma)

COC(=O)Nc1nc2ccc([S+]([O-])c3ccccc3)cc2[nH]1 (stereo not drawn) [Oxfendazole]
viability at 10 µM ([1]; Homo sapiens, NCI-H1650, 72 h, read-out: The results of antibiotic drug inhibiting cancer cell lines (cell viability analysis), H1650): 64% | viability at 10 µM ([2]; Homo sapiens, A549, 72 h, read-out: The results of antibiotic drug inhibiting cancer cell lines (cell viability analysis), A549): 64.7% | viability at 10 µM ([3]; Homo sapiens, 72 h, read-out: The results of antibiotic drug inhibiting cancer cell lines (cell viability analysis), AGS): 51.4% | viability at 10 µM ([4]; Homo sapiens, MKN-45, 72 h, MKN-45, repeated experiment, read-out: The results of antibiotic drug inhibiting cancer cell lines (cell viability analysis), MKN-45): 79.9% | viability at 10 µM ([5]; Homo sapiens, HepG2, 72 h, read-out: The results of antibiotic drug inhibiting cancer cell lines (cell viability analysis), HepG2): 99.4% | viability at 10 µM ([6]; Homo sapiens, 72 h, read-out: The results of antibiotic drug inhibiting cancer cell lines (cell viability analysis), Hep3B): 107% | viability at 10 µM ([7]; Homo sapiens, 72 h, read-out: The results of antibiotic drug inhibiting cancer cell lines (cell viability analysis), LoVo): 73.7% | viability at 10 µM ([8]; Homo sapiens, A-375, 72 h, read-out: The results of antibiotic drug inhibiting cancer cell lines (cell viability analysis), A375): 59.7% | viability at 10 µM ([9]; Homo sapiens, 72 h, read-out: The results of antibiotic drug inhibiting cancer cell lines (cell viability analysis), BCC): 55.3% | viability at 10 µM ([10]; Homo sapiens, 72 h, read-out: The results of antibiotic drug inhibiting cancer cell lines (cell viability analysis), HeLa): 37% | viability at 10 µM ([11]; Homo sapiens, 72 h, read-out: The results of antibiotic drug inhibiting cancer cell lines (cell viability analysis), C-33A): 86.4% | viability at 10 µM ([12]; Homo sapiens, 72 h, PC-3, repeated experiment, read-out: The results of antibiotic drug inhibiting cancer cell lines (cell viability analysis), PC-3): 72.7% | viability at 10 µM ([13]; Homo sapiens, 72 h, read-out: The results of antibiotic drug inhibiting cancer cell lines (cell viability analysis), TSGH-8301): 67.6% | viability at 10 µM ([14]; Homo sapiens, T-24, 72 h, read-out: The results of antibiotic drug inhibiting cancer cell lines (cell viability analysis), T24): 70.2% | viability at 10 µM ([15]; Homo sapiens, MCF7, 72 h, read-out: The results of antibiotic drug inhibiting cancer cell lines (cell viability analysis), MCF-7): 64.6% | viability at 10 µM ([16]; Homo sapiens, MDA-MB-231, 72 h, read-out: The results of antibiotic drug inhibiting cancer cell lines (cell viability analysis), MDA-MB231): 73.9% | viability at 10 µM ([17]; Homo sapiens, 72 h, read-out: The results of antibiotic drug inhibiting cancer cell lines (cell viability analysis), BxPC-3): 55% | viability at 10 µM ([18]; Homo sapiens, ASPC1, 72 h, read-out: The results of antibiotic drug inhibiting cancer cell lines (cell viability analysis), AsPC-1): 50.9% | viability at 10 µM ([19]; Homo sapiens, 72 h, read-out: The results of antibiotic drug inhibiting cancer cell lines (cell viability analysis), NIH-OVCAR-3): 62.2% | viability at 10 µM ([20]; Homo sapiens, TOV21G, 72 h, read-out: The results of antibiotic drug inhibiting cancer cell lines (cell viability analysis), TOV-21G): 65.1% | viability at 10 µM ([21]; Homo sapiens, 72 h, read-out: The results of antibiotic drug inhibiting cancer cell lines (cell viability analysis), SAS): 72.3% | viability at 10 µM ([22]; Homo sapiens, 72 h, read-out: The results of antibiotic drug inhibiting cancer cell lines (cell viability analysis), U2OS): 83.4% | viability at 10 µM ([23]; Homo sapiens, 786-0, 72 h, read-out: The results of antibiotic drug inhibiting cancer cell lines (cell viability analysis), 786-O): 72.3% | viability [24]: 67.4%

COC(=O)Nc1nc2cc(C(=O)c3ccc(F)cc3)ccc2[nH]1 [Flubendazole (Flutelmium)]
The results of antibiotic drug inhibiting cancer cell lines (cell viability analysis), H1650 [1]: 35.69 | The results of antibiotic drug inhibiting cancer cell lines (cell viability analysis), A549 [2]: 22.71 | The results of antibiotic drug inhibiting cancer cell lines (cell viability analysis), AGS [3]: 28.25 | The results of antibiotic drug inhibiting cancer cell lines (cell viability analysis), MKN-45 [4]: 63.06 | The results of antibiotic drug inhibiting cancer cell lines (cell viability analysis), HepG2 [5]: 56.8 | The results of antibiotic drug inhibiting cancer cell lines (cell viability analysis), Hep3B [6]: 56.93 | The results of antibiotic drug inhibiting cancer cell lines (cell viability analysis), LoVo [7]: 53.35 | The results of antibiotic drug inhibiting cancer cell lines (cell viability analysis), A375 [8]: 30.32 | The results of antibiotic drug inhibiting cancer cell lines (cell viability analysis), BCC [9]: 31.79 | The results of antibiotic drug inhibiting cancer cell lines (cell viability analysis), HeLa [10]: 25.78 | The results of antibiotic drug inhibiting cancer cell lines (cell viability analysis), C-33A [11]: 46.4 | The results of antibiotic drug inhibiting cancer cell lines (cell viability analysis), PC-3 [12]: 32.11 | The results of antibiotic drug inhibiting cancer cell lines (cell viability analysis), TSGH-8301 [13]: 45.64 | The results of antibiotic drug inhibiting cancer cell lines (cell viability analysis), T24 [14]: 34.67 | The results of antibiotic drug inhibiting cancer cell lines (cell viability analysis), MCF-7 [15]: 55.01 | The results of antibiotic drug inhibiting cancer cell lines (cell viability analysis), MDA-MB231 [16]: 43.43 | The results of antibiotic drug inhibiting cancer cell lines (cell viability analysis), BxPC-3 [17]: 32.76 | The results of antibiotic drug inhibiting cancer cell lines (cell viability analysis), AsPC-1 [18]: 35.53 | The results of antibiotic drug inhibiting cancer cell lines (cell viability analysis), NIH-OVCAR-3 [19]: 59.15 | The results of antibiotic drug inhibiting cancer cell lines (cell viability analysis), TOV-21G [20]: 24.84 | The results of antibiotic drug inhibiting cancer cell lines (cell viability analysis), SAS [21]: 45.16 | The results of antibiotic drug inhibiting cancer cell lines (cell viability analysis), U2OS [22]: 48.74 | The results of antibiotic drug inhibiting cancer cell lines (cell viability analysis), 786-O [23]: 20.97 | The results of antibiotic drug inhibiting cancer cell lines (cell viability analysis), HCT116 [24]: 20.63
